# Assays:
# HaloTag protein tag = assay: Probe mixed with HaloTag protein tag, fluorescence spectrophotometer (Example 86); type: biochemical; details: 5 μM probe, 10 μM protein tag, 37° C., 1 hour; for Fluorescence enhancement: fluorescence activation multiple after binding protein tag; for Emission/nm: fluorescence emission wavelength
# Protocol: (§1) A probe was mixed with a corresponding HaloTag protein tag to obtain a mixed sample. The final concentration of the probe in the mixed sample was 5 μM and the final concentration of the protein tag was 10 μM. The mixed sample was incubated at 37° C. for 1 hour, and the sample was detected using a fluorescence spectrophotometer.
# [1] = Quantum yield of free probe not reacted with protein tag; type: physicochemical
# Protocol: as §1
# [2] = Viscosity responsiveness: fluorescence intensity in glycerol versus methanol; type: physicochemical; details: fluorescence intensity in glycerol to that in methanol
# Protocol: The above-mentioned viscosity-responsive fluorescent dye means that the fluorescence intensity of the dye responds to the viscosity of the solution. As the viscosity of the solution increases, the fluorescence intensity increases. Optionally, the viscosity-responsive fluorescent dye is an organic dye molecule which, under the same concentration and excitation wavelength, at 25° C. has a ratio • of the maximum fluorescence emission intensity of the dye in glycerol to the fluorescence intensity in methanol of greater than 2, optionally greater than 5, optionally greater than 10. The concentration of the viscosity-responsive dye ranges from 1×10^−7 M to 1×10^−5 M.
SMILES,The quantum yield after binding to Halo-tag (HaloTag protein tag),Emission/nm (HaloTag protein tag) [nm],The quantum yield of the free probe [1],ratio [2],Fluorescence enhancement (HaloTag protein tag)
CN(C)c1ccc2cc(/C=C(\C#N)C(=O)OCCOCCOCCCCCCCl)sc2c1 [Probe 64],0.60,585,<0.001,632,519
CN(CCOC(=O)NCCOCCOCCCCCCCl)c1cc2cc3sc(/C=C(\C#N)C(=O)OC(C)(C)C)cc3cc2s1 [Probe 36],0.58,630,0.001,1258,488
CN(CCO)c1ccc(/C=C(\C#N)C(=O)NCCOCCOCCCCCCCl)cc1 [Probe 58],0.58,480,<0.001,419,519
CN(CCOC(=O)NCCOCCOCCCCCCCl)c1cc2c(s1)-c1sc(/C=C(\C#N)C(=O)OC(C)(C)C)cc1[Si]2(C)C [Probe 38],0.56,650,0.0011,1011,503
CN(CCOC(=O)NCCOCCOCCCCCCCl)c1ccc(C#C/C=C(\C#N)C(=O)OC(C)(C)C)cc1 [Probe 28],0.41,566,<0.001,1132,551
CN(CCOC(=O)NCCOCCOCCCCCCCl)c1cc2sc(/C=C(\C#N)C(=O)O)cc2s1 [Probe 12],0.41,555,0.0012,405,750
CN1C(=O)/C(=C\c2cc3c(s2)-c2sc(N(C)CCOC(=O)NCCOCCOCCCCCCCl)cc2C3(C)C)SC1=S [Probe 55],0.39,660,<0.001,211,382
CC1=CC(C)(C)N(CCOC(=O)NCCOCCOCCCCCCCl)c2ccc(/C=C(\C#N)C(=O)OC(C)(C)C)cc21 [Probe 46],0.58,520,<0.001,682,563
CN(C)c1ccc2cc(/C=C(\C#N)C(=O)NCCOCCCl)sc2c1 [Probe 68],0.50,580,<0.001,381,681
COCCNC(=O)/C(C#N)=C/c1ccc(-c2ccc(N(C)CCOC(=O)NCCOCCOCCCCCCCl)s2)s1 [Probe 41],0.44,700,0.0015,101,418
CC1=CC(C)(C)N(CCOC(=O)NCCOCCOCCCCCCCl)c2ccc(/C=C(\C#N)C(=O)O)cc21 [Probe 47],0.45,523,<0.001,235,358
CN(C)c1ccc2nc(/C=C(\C#N)C(=O)OCCOCCOCCCCCCCl)sc2c1 [Probe 72],0.47,640,0.001,268,486

# Further lines, with some results ahead:
The quantum yield after binding to Halo-tag (HaloTag protein tag),Emission/nm (HaloTag protein tag) [nm],The quantum yield of the free probe [1],ratio [2],SMILES,Fluorescence enhancement (HaloTag protein tag)
0.60,620,<0.001,1125,CN(CCOC(=O)NCCOCCOCCCCCCCl)c1cc2sc3cc(/C=C(\C#N)c4nc5ccccc5o4)sc3c2s1 [Probe 30],535
0.50,480,<0.001,851,CN(CCOC(=O)NCCOCCOCCCCCCCl)c1ccc(/C=C(\C#N)C(=O)O)cc1 [Probe 9],745
0.45,515,0.0011,399,CN(CCOC(=O)NCCOCCOCCCCCCCl)c1ccc(/C=C(\C#N)c2nc3ccccc3s2)cc1 [Probe 3],512
0.41,660,<0.001,1135,CN(CCOC(=O)NCCOCCOCCCCCCCl)c1cc2sc3cc(/C=C(\C#N)c4nc5ccccc5s4)sc3c2s1 [Probe 31],875
0.52,610,<0.001,560,CN(CCOC(=O)NCCOCCOCCCCCCCl)c1ccc2cc(/C=C(\C#N)c3nc4ccccc4o3)sc2c1 [Probe 14],771
0.51,568,0.0017,301,CN(CCOC(=O)NCCOCCOCCCCCCCl)c1ccc2cc(/C=C(\C#N)C(=O)O)sc2c1 [Probe 18],444
0.36,632,<0.001,1821,CN1C(=O)/C(=C/c2nc3ccc(N(C)CCOC(=O)NCCOCCOCCCCCCCl)cc3o2)N=C1c1ccccc1 [Probe 22],610
0.53,625,0.0012,299,CN(CCOC(=O)NCCOCCOCCCCCCCl)c1ccc2nc(/C=C(\C#N)C(=O)OC(C)(C)C)oc2c1 [Probe 19],561
0.52,637,<0.001,1235,CN(CCOC(=O)NCCOCCOCCCCCCCl)c1ccc2nc(/C=C(\C#N)c3nc4ccccc4s3)oc2c1 [Probe 23],712
0.61,620,0.0028,321,CN(C)c1ccc2nc(/C=C(\C#N)C(=O)NCCOCCOCCCCCCCl)sc2c1 [Probe 71],475
0.52,622,<0.001,1681,CN(CCOC(=O)NCCOCCOCCCCCCCl)c1ccc2nc(/C=C(\C#N)C(=O)OC(C)(C)C)sc2c1 [Probe 24],590
0.48,628,<0.001,1481,CN(CCOC(=O)NCCOCCOCCCCCCCl)c1ccc2nc(/C=C(\C#N)C(=O)O)oc2c1 [Probe 21],560
0.48,510,0.001,410,CN(CCOC(=O)NCCOCCOCCCCCCCl)c1ccc(/C=C(\C#N)c2nc3ccccc3o2)cc1 [Probe 2],410

# — patent US12492337B2, “Fluorescent probe, preparation method therefor and use thereof” (FLUORESCENCE DIAGNOSIS (SHANGHAI) BIOTECH COMPANY, priority 2017, dated 2025)
